The text below walks through data of publication PMC9663589, “Anti-tumor effects of P-LPK-CPT, a peptide-camptothecin conjugate, in colorectal cancer” (Communications Biology, 2022).

“Also recorded” adds a separate entry of the source. No end group written: not given here.

For series [1], the system named is HCT116 cells. In words: Glutamine competition experiment (FITC-P-LPK uptake). The series is classed as cell-based, human. Particulars: 0–32 mM glutamine, 37 °C, 2 h. The procedure:
Then these cells were washed with ice-cold PBS three times gently, suspended in PBS and transferred to a 96-well costar plate. The fluorescence intensity was measured in a multi-well plate reader (BioTek synergy4).

Series [2] in a line: in vivo. Details: species or system human xenograft in BALB/c nude mice. As to conditions: female, BALB/c nude, mouse, iv, 3.7 MBq, total radioactivity, T/NT ratio. The procedure: (§1) To obtain ^68Ga, 0.1 M HCl was used to elute a ^68Ge-^68Ga generator. The radioactivity of eluate was monitored. The radioactive elution peak was collected for ^68Ga radiolabeling experiment. An aliquot of 150 μg of compound P-LPK or P-CON was put in a glass vial and dissolved with 0.2 M sodium acetate/acetic acid buffer, pH 3.8. Then ^68GaCl3 tracer was added, and the pH was adjusted to fall in a range of 3.5~4 with 0.1 M NaOH. The solution was stored at room temperature for 0.5 h. The radiochemical purities of ^68Ga-P-LPK and ^68Ga-P-CON were measured with thin-layer chromatography (TLC), using silica gel-impregnated glass fiber stripe (iTLC SG) and 0.25 M sodium citrate/citric acid buffer as mobile phase. ^68GaCl3 was used as a control.
(§2) Each U87 and HCT116 tumor-bearing mouse was injected in a tail vein with 3.7 MBq (100 μCi, 0.1 nmol in 100 μl) of ^68Ga-P-LPK or ^68Ga-P-CON under isoflurane anesthesia (n = 4 per group). For static PET, 5-min scans were acquired at 30 min, 60 min, and 120 min after injection. The maximum radioactivity concentrations within a tumor or an organ were obtained from mean pixel values within the multiple regions of interest (ROI) volume.

Series [3] deals with U87 tumors. Kind of series: in vivo. Details: species or system human xenograft in BALB/c nude mice. As to conditions: female, BALB/c nude, mouse, iv, 3.7 MBq, 2 h. The procedure:
as §1, §2

The nature of series [4]: in vivo. Further details: species or system human xenograft in BALB/c nude mice. Particulars: female, BALB/c nude, mouse, iv, 3.7 MBq, total radioactivity, T/NT ratio. Here is the method: as §1, §2
For the blocking experiment, unlabeled P-LPK was first injected into mice (n = 3 per group), and 3.7 MBq ^68Ga-P-LPK was then injected. Static PET images were acquired at 30 min, 60 min and 120 min post-injection.
This is another data set of the same source.

In series [5] the test system is Plasminogen activator inhibitor 1 precursor (PAI1). Particulars: MDA-MB-231, bioinformatics analysis; cited from earlier work. From the text:
(§3) The specific binding mechanisms of a peptide to a cell is presumably by its binding to a given receptor expressed at the cell membrane.

Series [6] deals with CRC cells. Particulars: conjugated to CPT.
For series [7], the system named is human CRC cell lines. Particulars: earlier phage display study; cited from earlier work. From the text: The phage display technique is a powerful tool to identify novel targeting peptides in researches and clinics[10]–[12]. By screening whole cells, it is able to identify short peptides that interact with cell surface molecules.
For series [8], the system named is SLC1A5 in HCT116 cells. In words: FITC-P-LPK binding after SLC1A5 knockdown. As to conditions: si-SLC1A5, 48 h. The series is classed as cell-based, human. The procedure: (§4) Fig. 6 P-LPK bound to SLC1A5 and entered CRC cells through endocytosis. a, b Western blotting analysis of SLC1A5 in NCM460, HCT116, LoVo, SW480, HT29 and Colo320HSR cells. After knocking down SLC1A5 in HCT116 and HT29, the binding intensity of FITC-P-LPK to cells was observed by confocal microscopy. Bar, 10 μm. c, d Effects of different endocytosis inhibitors on the internalization of FITC-P-LPK. HCT116 cells were pre-treated with 10 µM chlorpromazine, 50 μM methyl-β-cyclodextrin, 20 µM Amiloride hydrochloride for 30 min at 37 °C. Subsequently, the cells were incubated with FITC-P-LPK for 2 h. Then the fluorescence intensity was observed by confocal microscopy and detected using a multi-well plate reader (n = 5, means ± SD, NC vs CPZ, p = 0.0001; NC vs MβCD, p = 0.9069; NC vs EIPA, p = 0.9812) (****p < 0.0001). Bar, 10 μm. e The competition experiment with SLC1A5 substrates glutamine. FITC-P-LPK was incubated with increasing concentrations (0–32 mM) of glutamine in HCT116 cells at 37 °C for 2 h. The fluorescence intensity was measured in a multi-well plate reader (n = 5, means ± SD). […]
(§5) Primary antibodies against SLC1A5 (Abcam,  Cat No. ab237704,1:1000) and secondary antibodies labeled with HRP (YEASEN, 33701ES60, China,1:5000) was applied. Signals were detected using ECL Kit (Pierce Biotech, Rockford, IL). β-Actin (Sigma,USA, A5441) was performed as an internal control.

Series [9] concerns SLC1A5 in HT29 cells. Kind of series: FITC-P-LPK binding after SLC1A5 knockdown. The series is classed as cell-based, human. As to conditions: si-SLC1A5, 48 h. The procedure: as §4, §5
The subject of series [10] is human CRC cell lines. In words: Peptide binding to a panel of human CRC cell lines. The series is classed as cell-based. Particulars: confocal imaging, in contrast to NCM460; FITC-labeled.
Description: NCM460, Colo320HSR, HCT116, LoVo, HT29 and SW480 cells were respectively incubated with FITC-labeled P-LPK (Random peptide P-CON) peptides for 2 h at 37 °C and washed with PBS for three times. The cells were fixed with 4% paraformaldehyde for 30 min at room temperature, and then 4,6-diamidino-2-phenylindole (DAPI) was used for nucleic acid stain. A laser scanning confocal microscope was used to visualize the cells. The fluorescence intensity was analyzed using the Image-Pro Plus 6.0 software. For cell localization experiment, 20 μg/ml rhodamine-labeled peptides were incubated with NCM460 and HCT116 for 2 h, and then washed with PBS for three times. After that, the cell membrane was stained with a blue cell membrane probe (Thermo Fisher Scientific, Cat. No. W11263). The binding of Rhodamine-P-LPK to cells and their localization in cells was observed under a confocal microscope.
Series [11] deals with α-2-macroglobulin. As to conditions: androgen-independent prostate cancer cells; cited from earlier work.
Description: as §3

Series [12] relates to Metalloproteinase Inhibitor 1 (TIMP-1). As to conditions: MDA-MB-231, bioinformatics analysis; cited from earlier work.
Description: as §3

Series [13] concerns 78 kDa glucose-regulated protein. As to conditions: androgen-independent prostate cancer cells; cited from earlier work.
Description: as §3

As to `NC(=O)CC[C@H](N)C(=O)O` [glutamine], in series [1], the “Effect on uptake of FITC-P-LPK” value was “does not affect the uptake of P-LPK”.

Consider “DLPSRTSALASG [68Ga-P-CON, metal not drawn]”, for which, in series [2], the tissue to tissue ratio at 0.5 h worked out at 1.75, the tissue to tissue ratio at 1 h came to 1.56 and the tissue to tissue ratio at 2 h amounted to 1.33. For the same molecule, in [3], the T/NT ratio is recorded as 1.28. Besides, in [4], the tissue to tissue ratio at 0.5 h was 1.58, the tissue to tissue ratio at 1 h was determined as 1.49 and the tissue to tissue ratio at 2 h amounted to 1.37.

Turning to “DTFNSFGRVRIE [peptide targeting MDA-MB-231]”, the Targeting entry in series [5] was “specifically targeted”.

Consider DWSSWVYRDPQT [CBP-DWS], for which, in series [6], the “Improvement of CPT killing when used as targeting vector” value was “did not improve the targeted killing ability”. Further, the “Binding to CRC cells” value in series [7] was “selectively bound to CRC cells”.

On to “FITC-P-LPK (LPKTVSSDMSLN; also: FITC label, position not given here)”, for which the “Fluorescence after SLC1A5 knockdown” value in series [8] and in series [9] was “reduction of the fluorescence” in each case. Further, in series [10], the “FITC-peptide binding to CRC cells” value is “stronger green fluorescence in CRC cells than normal NCM460 cells; also recorded: abundant binding capacity to human CRC cell lines”.

For the molecule “PKRGFQD [peptide targeting androgen-independent prostate cancer cells]”, the Binding result in [11] is listed as “bind specifically to α-2-macroglobulin”.

For the molecule PRWAVSP [peptide targeting MDA-MB-231], the Targeting result in [12] was “specifically targeted Metalloproteinase Inhibitor 1 (TIMP-1)”.

With “SNTRVAP [peptide targeting androgen-independent prostate cancer cells]”, the Binding entry in series [13] was “bind specifically”.
